Test results: ChEMBL document CHEMBL5036313, “Discovery of Novel, Potent Inhibitors of Hydroxy Acid Oxidase 1 (HAO1) Using DNA-Encoded Chemical Library Screening” (J Med Chem, 2021)
In brackets after ≈: the same amount, converted by molar mass.

Tests used:
[1] = Kinetic solubility of the compound at pH 2; assay type: physicochemical; conditions: buffer, read-out: Kinetic_solubility
[2] = Kinetic solubility of the compound at pH 7.4; assay type: physicochemical; conditions: buffer, read-out: Kinetic_solubility
[3] = Metabolic stability in mouse liver microsomes assessed as intrinsic clearance; assay type: ADME, Microsome; conditions: read-out: CLH
[4] = Metabolic stability in human liver microsomes assessed as intrinsic clearance; assay type: ADME, Microsome; conditions: read-out: CLH
[5] = Unbound intrinsic clearance in CD1 mouse plasma at 0.3 mg/kg, iv measured upto 8 hrs; assay type: ADME, organism-based; conditions: in vivo
[6] = Half life in CD1 mouse plasma at 0.3 mg/kg, iv measured upto 8 hrs; assay type: ADME, organism-based
[7] = AUCinfinity in CD1 mouse at 10 mg/kg, po measured upto 24 hrs; assay type: ADME, organism-based; set-up: route oral, dose 10 mg/kg, time <=24; conditions: in vivo
[8] = Oral bioavailability in CD1 mouse at 10 mg/kg measured upto 24 hrs; assay type: ADME, organism-based; conditions: in vivo

| solubility kinetic [1] | solubility kinetic [2] | CLint scaled [3] | CLint scaled [4] | CL free [5] | half-life [6] | AUC(0-inf) [7] | bioavailability [8] | Structure (SMILES) |
| --- | --- | --- | --- | --- | --- | --- | --- | --- |
| 276 µM (≈ 108 µg/mL) | 254 µM (≈ 99.7 µg/mL) | 45 mL/min/kg | – | – | – | – | – | Cc1nc(-c2cccc(CN(C)c3ccc4[nH]nc(C(=O)O)c4c3)c2)sc1C |
| 11 µM (≈ 4.33 µg/mL) | 227 µM (≈ 89.3 µg/mL) | 38.1 mL/min/kg | 2.4 mL/min/kg | 5436 mL/min/kg | 0.4 h | 0.46 µM·h | 2% | CC(C)c1noc(-c2cccc(CNc3ccc4[nH]nc(C(=O)O)c4c3)c2O)n1 |
| 175 µM (≈ 73.9 µg/mL) | 6 µM (≈ 2.54 µg/mL) | 13 mL/min/kg | – | – | – | – | – | CC(C)c1csc(-c2cccc(CN(C)c3ccc4[nH]nc(C(=O)O)c4c3)c2O)n1 |
| 4 µM (≈ 1.57 µg/mL) | 229 µM (≈ 89.9 µg/mL) | 84 mL/min/kg | – | – | – | – | – | CC(C)c1coc(-c2cccc(CNc3ccc4[nH]nc(C(=O)O)c4c3)c2O)n1 |

Continued, compound first:

| Structure (SMILES) | solubility kinetic [1] | solubility kinetic [2] | CLint scaled [3] | CLint scaled [4] | CL free [5] | half-life [6] | AUC(0-inf) [7] | bioavailability [8] |
| --- | --- | --- | --- | --- | --- | --- | --- | --- |
| CN(C)c1noc(-c2cccc(CNc3ccc4[nH]nc(C(=O)O)c4c3)c2)n1 | 308 µM (≈ 117 µg/mL) | 255 µM (≈ 96.5 µg/mL) | 2.9 mL/min/kg | 0.5 mL/min/kg | – | – | – | – |
| Cc1csc(-c2cccc(CNc3ccc4[nH]nc(C(=O)O)c4c3)c2O)n1 | 5 µM (≈ 1.9 µg/mL) | 44 µM (≈ 16.7 µg/mL) | 34 mL/min/kg | – | – | – | – | – |
| CN(C)c1noc(-c2cccc(CNc3ccc4[nH]nc(C(=O)O)c4c3)c2Cl)n1 | 7 µM (≈ 2.89 µg/mL) | 296 µM (≈ 122 µg/mL) | 12 mL/min/kg | 5.8 mL/min/kg | – | – | – | – |
| CN(C)c1noc(-c2cccc(CNc3ccc4[nH]nc(C(=O)O)c4c3)c2O)n1 | 0.4 µM (≈ 0.158 µg/mL) | 157 µM (≈ 61.9 µg/mL) | 28.6 mL/min/kg | 6.9 mL/min/kg | 447 mL/min/kg | 1.8 h | 11.2 µM·h | 6% |
| Cc1nc(-c2cccc(CNc3ccc4[nH]nc(C(=O)O)c4c3)c2O)sc1C | 20 µM (≈ 7.89 µg/mL) | 15 µM (≈ 5.92 µg/mL) | 15 mL/min/kg | 21 mL/min/kg | 4500 mL/min/kg | 3.3 h | 46.1 µM·h | 19% |
| CC(C)c1csc(-c2cccc(CNc3ccc4[nH]nc(C(=O)O)c4c3)c2O)n1 | 97 µM (≈ 39.6 µg/mL) | 102 µM (≈ 41.7 µg/mL) | 8 mL/min/kg | 10 mL/min/kg | – | – | – | – |
| CN(C)c1noc(-c2cccc(CNc3cnc4nn[nH]c4c3)c2O)n1 | 0.53 µM (≈ 0.187 µg/mL) | 0.59 µM (≈ 0.208 µg/mL) | 1210 mL/min/kg | 55.5 mL/min/kg | – | – | – | – |
| CN(C)c1noc(-c2cccc(CN(C)c3ccc4[nH]nc(C(=O)O)c4c3)c2O)n1 | 16 µM (≈ 6.53 µg/mL) | 135 µM (≈ 55.1 µg/mL) | 46 mL/min/kg | 14 mL/min/kg | 2444 mL/min/kg | 3.3 h | 6.8 µM·h | 4% |
